Test results as given in patent US8759499B2, “Lipids for transfection of Eukaryotic cells” (Molecular Transfer, Inc., priority 2005, dated 2014).
Ends that are not written are not given here.

System: CHO-K1, NIH3T3, A549, Cos-7 and BE(2)C
Experiment: Transfection with β-galactosidase reporter plasmid pCMV•SPORT-β-gal, "before" and "after" peptide protocols, β-gal activity (ONPG, OD 405)
Type: cell-based
Details: FIG. 1-5
Protocol: Transfection of CHO-K1, NIH3T3, A549, Cos-7 and BE(2)C with β-galactosidase reporter plasmid pCMV•SPORT-β-gal was carried out as follows:
Cells were plated in a 96-well plates with 100 μl of media containing 10% fetal calf serum the day before transfection such that a desired confluency (70%-95%) was achieved. The following day a transfection agent that includes a liposomal composition of the lipid DMTS (Dimyrstyl-tetrahydroxy-spermine) and DOPE (2:1 DMTS:DOPE) and DNA were mixed in Opti-MEM to form DNA/lipid complexes. Complexes were formed by adding various amounts of lipids (0.1 to 0.35 μl) to 100 μl of Opti-MEM. DNA (100 ng) was added to 100 μl Opti-MEM. The DNA and lipid solutions were then mixed to form DNA lipid complexes. The complexes were incubated for at least 15 minutes after which added to the DNA lipid complexes, was 20 μl of various amounts of a peptide having the sequence of a Prototypical Avian reovirus fusogenic peptide provided herein, as follows:
and incubated for 15 minutes to form a DNA/lipid/peptide complex. […] Total activity was determined by reading the OD at 405 using Bio-Rad Benchmark Microplate Spectrophotometer. […]
were added to the DNA mixture and incubated for 15 minutes. […] Total activity was determined by reading the OD at 405 using Bio-Rad Benchmark Microplate Spectrophotometer.

**Q.** With “RMPPGSCNGATAVFGNVHKKKKKKKKKKKKKKKK [peptide, Prototypical Avian reovirus fusogenic peptide with 16 lysine residues]” as the sequence, how does the “amount of lipid required to enhance transfection” value (DMTS:DOPE 2:1 liposomes plus peptide, before or after protocol) read?
**A.** reduced

**Q.** And the “effect of adding the peptide on transfection” value (DMTS:DOPE 2:1 liposomes, peptide added to DNA before lipid, or to DNA/lipid complex)?
**A.** enhancement of transfection
